Reference: patent publication US5527703A (Merck & Co., Inc., priority 1994, dated 1996)

Target: T1, GluCl α&β (Caenorhabditis elegans, UniProt G5EBR3+Q17328)
T1 construct: the full-length open reading frame of the GluCl cDNA encoding the GluClα (52,550 kDa) and GluClβ (49,900kDa) subunits; expressed in transfected cells; host or cells: Xenopus laevis oocytes injected with in vitro RNA
T1 sequence (G5EBR3 21-461): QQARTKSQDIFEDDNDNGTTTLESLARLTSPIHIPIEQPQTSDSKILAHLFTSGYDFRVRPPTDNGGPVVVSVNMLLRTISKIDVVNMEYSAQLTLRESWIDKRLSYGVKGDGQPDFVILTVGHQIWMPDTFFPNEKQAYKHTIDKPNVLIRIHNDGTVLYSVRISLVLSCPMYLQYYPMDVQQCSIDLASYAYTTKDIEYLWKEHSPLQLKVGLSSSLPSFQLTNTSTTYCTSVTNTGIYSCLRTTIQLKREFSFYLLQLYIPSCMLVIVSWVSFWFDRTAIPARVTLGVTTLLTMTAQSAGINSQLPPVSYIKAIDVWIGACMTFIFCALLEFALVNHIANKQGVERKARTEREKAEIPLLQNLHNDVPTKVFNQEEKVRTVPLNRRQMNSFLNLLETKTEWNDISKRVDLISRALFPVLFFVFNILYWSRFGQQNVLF
T1 sequence (Q17328 23-434): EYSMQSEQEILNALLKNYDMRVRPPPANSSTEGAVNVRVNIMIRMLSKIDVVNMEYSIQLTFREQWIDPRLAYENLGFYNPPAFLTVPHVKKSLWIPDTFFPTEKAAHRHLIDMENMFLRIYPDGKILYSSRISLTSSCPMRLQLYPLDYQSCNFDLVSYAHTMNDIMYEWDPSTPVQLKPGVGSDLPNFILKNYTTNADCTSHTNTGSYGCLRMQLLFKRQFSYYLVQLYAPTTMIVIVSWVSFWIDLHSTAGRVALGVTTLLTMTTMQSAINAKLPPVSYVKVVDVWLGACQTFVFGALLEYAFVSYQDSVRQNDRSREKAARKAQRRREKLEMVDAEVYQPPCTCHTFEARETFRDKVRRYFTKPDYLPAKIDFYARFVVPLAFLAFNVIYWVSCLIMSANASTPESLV
Experiment: Agonist activation of current in Xenopus oocytes injected with GluClα and GluClβ RNA (two-microelectrode voltage clamp)
Format: cell-based, C. elegans
Details: for type of drug-sensitive current: GluCl α&β oocytes; for voltage dependence of current: I/V
Procedure: Xenopus laevis oocytes were prepared and injected using standard methods previously described and known in the art [Arena, J. P., Liu. K. K., Paress, P. S. & Cully. D. F. Mol. Pharmacol. 40, 368-374 (1991 ); Arena, J. P., Liu, K. K., Paress, P. S., Schaeffer, J. M. & Cully, D. F. Mol. Brain Res. 15, 339-348 (1992)]. Adult female Xenopus laevis were anesthetized with 0.17% tricaine methanesulfonate and the ovaries were surgically removed and placed in a dish consisting of (mM): NaCl 1 82.5, KCl 2. MgCl2 1, CaCl2 1.8, HEPES 5 adjusted to pH 7.5 with NaOH (OR-2). Ovarian lobes were broken open, rinsed several times, and gently shaken in OR-2 containing 0.2% collagenase (Sigma, Type 1A) for 2-5 hours. When approximately 50% of the follicular layers were removed, Stage V and VI oocytes were selected and placed in media consisting of (mM): NaCl 86, KCl 2, MgCl2 1, CaCl2 1.8, HEPES 5, Na pyruvate 2.5, theophylline 0.5, gentamicin 0.1 adjusted to pH 7.5 with NaOH (ND-96) for 24-48 hours before injection. Oocytes were injected with 50-70 nl of poly(A^+) RNA (1 mg/ml) or 50 nl of GluClα (0.1-100 ng) and/or GluClβ (0.1-100 ng). Control oocytes were injected with 50 nl of water. Oocytes were incubated for 2-10 days in ND-96 before recording. Incubations and collagenase digestion were carried out at 18° C.
Recordings were made at room temperature 2-10 days after injection. Unless otherwise indicated recordings were made in standard frog saline consisting of (mM): NaCl 115, KCl 2, MgCl2 1, CaCl2 1.8, HEPES 10 adjusted to pH 7.5 with NaOH. Oocytes were voltage-clamped using a standard two microelectrode amplifier (Dagan 8500 or TEV-200, Minneapolis,Minn.). Pipettes were filled with 3M KCl and had resistances between 0.5-3.0 M.OMEGA.. A plexiglass recording chamber (volume 200 μl) was constantly perfused at a rate of 10 ml/min. The recording chamber was connected to ground with a Ag/AgCl electrode directly, or through a 3M KCl agar bridge when extracellular chloride was varied. For low chloride solutions NaCl was replaced with equimolar concentrations of sodium isethionic acid. For low sodium solutions NaCl was replaced with equimolar KCl or choline Cl. Data were acquired and analyzed using PCLAMP with a TL-1 interface (Axon Instruments, Foster City, Calif.). Membrane current at a holding potential of -80 mV was recorded. The amplitude of drug-sensitive current was determined by subtracting the holding current at -80 mV from the peak current obtained in the presence of drug. Data were filtered at 30 Hz and sampled at 16.6 Hz. Current/voltage relationships (I/V) and reversal potentials (Erev) were determined using a 1-3 sec voltage ramp over the voltage range of -110 to +80 mV. For the ramps, data were filtered at 0.3-3 kHz and sampled at 160 Hz. Current in drug free solution was subtracted from current in the presence of drug to obtain drug-sensitive current/voltage relationships.
Electrophysiological properties were examined in oocytes injected with in vitro RNA from pGluClα and pGluClβ (FIG. 5).
Several ligand-gated ion channel agonists and antagonists were tested on oocytes injected with GluCl α&β (Table 1). […] 255, 449-464 (1976); Arena, J. P., Liu, K. K., Paress, P. S., Schaeffer, J. M. & Cully, D. F. Mol. Brain Res. 15, 339-348 (1992); Lea, T. J. & Usherwood, P. N. R. Comp. Gen. Pharmacol. 4, 351-363 (1973)].

Compound	activation of current / sensitivity of coexpressed GluCl α&β	Hill coefficient (IVMPO4) (GluCl α&β)	time for maximal activation of IVMPO4-sensitive current (GluCl α&β)	type of drug-sensitive current	EC50 (GluCl α&β, read-out: EC50 for IVMPO4 activation of current)	voltage dependence of current (GluCl α&β)	% of Glutamate 10 mM (agonist 1 μM, -80 mV, % of response elicited with 10 mM glutamate)	glutamate concentrations at which desensitization of the glutamate-sensitive current was observed (GluCl α&β injected oocytes)	Hill coefficient (glutamate) (GluCl α&β, no IVMPO4)
ivermectin-4-O-phosphate [IVMPO4]	direct activation of current	2.5	42 ± 2 s	irreversible	190 nM	outwardly rectifying	117 ± 13%	–	–
N[C@@H](CCC(=O)O)C(=O)O [glutamate]	direct activation of current	–	–	rapidly activating reversible	–	outwardly rectifying	–	greater than 1 mM	1.7
